ChEMBL document CHEMBL5241111, “Non-steroidal anti-inflammatory drugs: recent advances in the use of synthetic COX-2 inhibitors” (RSC Med Chem, 2022)

These molecules were tested against T1, Prostaglandin G/H synthase 2 (Homo sapiens, UniProt P35354) (assay: Inhibition of COX-2 (unknown origin)). Conditions: not given.
T1 sequence (P35354 whole entry): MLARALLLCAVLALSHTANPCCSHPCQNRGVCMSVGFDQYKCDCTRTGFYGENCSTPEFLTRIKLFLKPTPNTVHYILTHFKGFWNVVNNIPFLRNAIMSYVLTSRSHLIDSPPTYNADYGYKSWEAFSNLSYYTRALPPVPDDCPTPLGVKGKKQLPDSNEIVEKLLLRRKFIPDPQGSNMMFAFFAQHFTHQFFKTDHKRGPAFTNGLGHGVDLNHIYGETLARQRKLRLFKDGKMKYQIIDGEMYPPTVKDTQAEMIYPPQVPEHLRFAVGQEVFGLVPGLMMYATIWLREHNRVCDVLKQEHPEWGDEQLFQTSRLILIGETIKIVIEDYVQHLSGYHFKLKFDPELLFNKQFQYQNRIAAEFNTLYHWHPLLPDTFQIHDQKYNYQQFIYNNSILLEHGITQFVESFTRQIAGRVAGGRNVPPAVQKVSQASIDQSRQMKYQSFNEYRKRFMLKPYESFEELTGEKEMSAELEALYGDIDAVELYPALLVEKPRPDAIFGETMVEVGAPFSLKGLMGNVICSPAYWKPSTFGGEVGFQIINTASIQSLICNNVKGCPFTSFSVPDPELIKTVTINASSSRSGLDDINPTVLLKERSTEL

Row | SMILES | IC50
1 | CC(=O)N1N=C(c2nnn(-c3ccc(S(N)(=O)=O)cc3)c2C)CC1c1ccccc1 (stereo not given) | 2610 nM
2 | CCC(C)C(=O)[C@H]1C(=O)[C@@]2(CC=C(C)C)C[C@H](C[C@H]3[C@@H](C[C@H](C(C)(C)O)C3(C)C)C2=O)C1(C)C (stereo not given in full) | 8320 nM
3 | CC(C)=CC[C@H]1C[C@@H]2C[C@@H]3[C@@H](C[C@]4(C)C(C)(C)OC[C@]34C)C(=O)[C@](C(=O)c3ccccc3)(C1=O)C2(C)C | 5270 nM

What follows are molecules tested against T2, Prostaglandin G/H synthase 2 (Homo sapiens) (UniProt P35354). Conditions: dose 2-10 nM, time 1.0 min.
T2 sequence (whole entry): T1 sequence (P35354 whole entry)

Row | SMILES | inhibition
4 | CN1C/C(=C\c2ccc(F)s2)C2=NN(c3ccccc3)C(c3ccc(F)s3)C2C1 (stereo not given) | < 98%
5 | CN1C/C(=C\c2ccc(Cl)s2)C2=NN(c3ccccc3)C(c3ccc(Cl)s3)C2C1 (stereo not given) | < 98%
6 | Cc1sc(/C=C2\CN(C)CC3C2=NN(c2ccccc2)C3c2cc(Br)c(C)s2)cc1Br (stereo not given) | < 98%
7 | Cc1sc(/C=C2\CN(C)CC3C2=NN(c2ccccc2)C3c2cc(F)c(C)s2)cc1F (stereo not given) | < 98%
8 | CN1C/C(=C\c2cccs2)C2=NN(c3ccccc3)C(c3cccs3)C2C1 (stereo not given) | < 98%
9 | CN1C/C(=C\c2ccc(Br)s2)C2=NN(c3ccccc3)C(c3ccc(Br)s3)C2C1 (stereo not given) | < 98%
10 | Cc1csc(/C=C2\CN(C)CC3C2=NN(c2ccccc2)C3c2cc(C)cs2)c1 (stereo not given) | < 98%
11 | CN1C/C(=C\c2ccc(O)s2)C2=NN(c3ccccc3)C(c3ccc(O)s3)C2C1 (stereo not given) | < 98%
12 | CN1C/C(=C\c2ccc([N+](=O)[O-])s2)C2=NN(c3ccccc3)C(c3ccc([N+](=O)[O-])s3)C2C1 (stereo not given) | < 98%
13 | CCc1ccc(/C=C2\CN(C)CC3C2=NN(c2ccccc2)C3c2ccc(CC)s2)s1 (stereo not given) | < 98%
14 | Cc1ccc(/C=C2\CN(C)CC3C2=NN(c2ccccc2)C3c2ccc(C)s2)s1 (stereo not given) | < 98%

The molecules below were run against COX-1/COX-2 (Homo sapiens) (UniProt P35354+P23219) (assay: Selectivity index, ratio of IC50 for inhibition of COX-1 (unknown origin) to IC50 for inhibition of COX-2 (unknown origin)). Conditions: not given.
Assay type: protein assay

Row | SMILES | Ratio IC50
15 | CC(=O)N1N=C(c2nnn(-c3ccc(S(N)(=O)=O)cc3)c2C)CC1c1ccccc1 (stereo not given) | 1.95

These molecules were tested against T3, Polyunsaturated fatty acid 5-lipoxygenase (Homo sapiens, UniProt P09917) (assay: Inhibition of 5-LOX (unknown origin) using linoleic acid as substrate preincubated for 5 mins followed by substrate addition by absorbance based analysis). Conditions: not given.
T3 sequence (P09917 whole entry): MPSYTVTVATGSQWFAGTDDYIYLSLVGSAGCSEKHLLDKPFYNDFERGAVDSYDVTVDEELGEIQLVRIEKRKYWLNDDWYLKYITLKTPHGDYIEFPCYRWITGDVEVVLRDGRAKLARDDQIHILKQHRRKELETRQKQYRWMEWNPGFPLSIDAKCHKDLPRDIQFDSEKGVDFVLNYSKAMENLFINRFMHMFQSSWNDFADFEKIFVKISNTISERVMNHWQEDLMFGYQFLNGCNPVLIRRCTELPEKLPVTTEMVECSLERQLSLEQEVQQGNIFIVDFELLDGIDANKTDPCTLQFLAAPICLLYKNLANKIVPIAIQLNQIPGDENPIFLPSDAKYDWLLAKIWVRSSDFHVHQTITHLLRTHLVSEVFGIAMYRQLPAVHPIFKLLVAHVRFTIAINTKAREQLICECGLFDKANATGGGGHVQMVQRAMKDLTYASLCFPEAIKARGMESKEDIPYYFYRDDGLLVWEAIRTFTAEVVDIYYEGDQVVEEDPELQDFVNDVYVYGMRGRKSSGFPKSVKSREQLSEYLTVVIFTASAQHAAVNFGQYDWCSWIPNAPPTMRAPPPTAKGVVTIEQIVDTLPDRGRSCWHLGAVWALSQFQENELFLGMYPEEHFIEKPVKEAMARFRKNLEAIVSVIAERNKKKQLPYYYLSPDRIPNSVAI

Row | SMILES | IC50
16 | N#Cc1ccc(-c2nc(N3CCOCC3)sc2C(=O)c2cccs2)cc1 | 380 nM
17 | O=C(c1cccs1)c1sc(N2CCOCC2)nc1-c1ccc(F)cc1 | 380 nM
18 | O=C(/N=c1/scc(-c2ccccc2)n1-c1ccccc1)c1cccs1 | 380 nM
19 | Cc1ccc(-c2nc(N3CCOCC3)sc2C(=O)c2cccs2)cc1 | 380 nM
20 | O=C(c1cccs1)c1sc(N2CCOCC2)nc1-c1ccc(C(F)(F)F)cc1 | 380 nM
21 | O=C(/N=c1\scc(-c2ccc([N+](=O)[O-])cc2)n1-c1ccccc1)c1cccs1 | 380 nM
22 | O=C(c1cccs1)c1sc(N(c2ccccc2)c2ccccc2)nc1-c1ccc(F)cc1 | 380 nM
23 | O=C(c1cccs1)c1sc(N(c2ccccc2)c2ccccc2)nc1-c1ccc([N+](=O)[O-])cc1 | 380 nM
24 | O=C(/N=c1\scc(-c2ccc(F)cc2)n1-c1ccccc1)c1cccs1 | 380 nM
25 | N#Cc1ccc(-c2nc(N(c3ccccc3)c3ccccc3)sc2C(=O)c2cccs2)cc1 | 380 nM
26 | Cc1ccc(-c2nc(N(c3ccccc3)c3ccccc3)sc2C(=O)c2cccs2)cc1 | 380 nM
27 | O=C(c1cccs1)c1sc(N(c2ccccc2)c2ccccc2)nc1-c1ccc(C(F)(F)F)cc1 | 380 nM
28 | Cc1ccc(-c2cs/c(=N\C(=O)c3cccs3)n2-c2ccccc2)cc1 | 380 nM
29 | O=C(/N=c1\scc(-c2ccc(C(F)(F)F)cc2)n1-c1ccccc1)c1cccs1 | 380 nM
30 | O=C(c1cccs1)c1sc(N2CCOCC2)nc1-c1ccccc1 | 380 nM
31 | O=C(c1cccs1)c1sc(N2CCOCC2)nc1-c1ccc([N+](=O)[O-])cc1 | 380 nM
32 | O=C(c1cccs1)c1sc(N(c2ccccc2)c2ccccc2)nc1-c1ccccc1 | 380 nM
33 | O=C(c1cccs1)c1sc(Nc2ccccc2)nc1-c1ccc(F)cc1 | 380 nM
34 | N#Cc1ccc(-c2cs/c(=N\C(=O)c3cccs3)n2-c2ccccc2)cc1 | 380 nM

The molecules below were run against T4, Polyunsaturated fatty acid lipoxygenase ALOX15 (Homo sapiens, UniProt P16050) (assay: Inhibition of 15-LOX (unknown origin)). Conditions: not given.
T4 sequence (P16050 whole entry): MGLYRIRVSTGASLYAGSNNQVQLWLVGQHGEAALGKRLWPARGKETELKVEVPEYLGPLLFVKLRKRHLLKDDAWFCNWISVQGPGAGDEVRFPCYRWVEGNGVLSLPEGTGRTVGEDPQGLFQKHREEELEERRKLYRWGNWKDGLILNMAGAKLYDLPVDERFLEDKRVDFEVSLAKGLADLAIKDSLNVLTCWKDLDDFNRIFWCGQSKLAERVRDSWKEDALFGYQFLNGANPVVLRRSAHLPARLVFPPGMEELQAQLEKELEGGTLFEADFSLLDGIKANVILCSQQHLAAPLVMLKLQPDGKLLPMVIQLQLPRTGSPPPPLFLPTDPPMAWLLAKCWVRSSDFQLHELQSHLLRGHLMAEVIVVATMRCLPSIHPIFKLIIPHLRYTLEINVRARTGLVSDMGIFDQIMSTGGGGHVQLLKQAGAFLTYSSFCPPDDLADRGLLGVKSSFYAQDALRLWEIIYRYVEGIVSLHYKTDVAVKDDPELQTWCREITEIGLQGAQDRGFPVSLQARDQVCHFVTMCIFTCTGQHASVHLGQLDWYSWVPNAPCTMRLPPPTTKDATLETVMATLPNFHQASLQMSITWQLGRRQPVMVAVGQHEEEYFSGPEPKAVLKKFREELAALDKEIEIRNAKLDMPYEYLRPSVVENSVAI

Row | SMILES | IC50
35 | Cc1nnc(/N=C2\NC(=O)/C(=C/c3cccnc3)S2)s1 | 3360 nM
36 | Cc1nnc(/N=C2\NC(=O)/C(=C/c3ccc(Br)cc3)S2)s1 | 3110 nM
37 | Cc1nnc(/N=C2\NC(=O)CS2)s1 | 2540 nM
38 | COc1ccc(/C=C2\S/C(=N/c3nnc(C)s3)NC2=O)cc1 | 3110 nM
39 | O=C1CS/C(=N/c2nnc(-c3ccccc3O)s2)N1 | 2540 nM
40 | Cc1nnc(/N=C2\NC(=O)/C(=C/C3CCCCC3)S2)s1 | 3360 nM
41 | Cc1nnc(/N=C2\NC(=O)/C(=C/c3ccc(Cl)cc3)S2)s1 | 3110 nM
42 | O=C1CS/C(=N/c2nnc(-c3ccc(O)cc3)s2)N1 | 2540 nM
43 | Cc1nnc(/N=C2\NC(=O)/C(=C/c3ccc(F)cc3)S2)s1 | 3110 nM
44 | Cc1nnc(/N=C2\NC(=O)/C(=C/c3ccc(O)cc3)S2)s1 | 3110 nM
45 | Cc1nnc(/N=C2\NC(=O)/C(=C/c3ccc(C(C)C)cc3)S2)s1 | 3110 nM
46 | Cc1nnc(/N=C2\NC(=O)/C(=C/c3ccsc3)S2)s1 | 3360 nM
47 | O=C1CS/C(=N/c2nnc(-c3ccc(Br)cc3)s2)N1 | 2540 nM
48 | Cc1nnc(/N=C2\NC(=O)/C(=C/C=C/c3ccccc3)S2)s1 | 3360 nM
49 | Cc1ccc(-c2nnc(/N=C3\NC(=O)CS3)s2)cc1 | 2540 nM
50 | Cc1nnc(/N=C2\NC(=O)/C(=C/c3ccc(N(C)C)cc3)S2)s1 | 3110 nM
51 | CC(c1cc2ccccc2s1)N(O)C(N)=O (stereo not given) [ZILEUTON] | 15600 nM

These molecules were tested against T1, Prostaglandin G/H synthase 2 (assay: Inhibition of COX-2 (unknown origin) by colorimetric assay). Conditions: not given.

Row | SMILES | IC50
52 | CCCCNc1cc(C(=O)N/N=c2\scc(-c3ccc(Cl)cc3)n2-c2ccccc2)cc(S(N)(=O)=O)c1Oc1ccccc1 | 1520 nM
53 | CCCCNc1cc(C(=O)N/N=c2\scc(-c3ccc(Cl)cc3)n2-c2ccc(Br)cc2)cc(S(N)(=O)=O)c1Oc1ccccc1 | 1520 nM
54 | C=CCn1c(-c2ccc(Cl)cc2)cs/c1=N\NC(=O)c1cc(NCCCC)c(Oc2ccccc2)c(S(N)(=O)=O)c1 | 1520 nM
55 | CCCCNc1cc(C(=O)n2nc(C)cc2C)cc(S(N)(=O)=O)c1Oc1ccccc1 | 4750 nM
56 | CCCCNc1cc(C(=O)N2N=C(C)CC2=O)cc(S(N)(=O)=O)c1Oc1ccccc1 | 5110 nM
57 | C=CCn1c(-c2ccc(C)cc2)cs/c1=N\NC(=O)c1cc(NCCCC)c(Oc2ccccc2)c(S(N)(=O)=O)c1 | 1520 nM
58 | CCCCNc1cc(C(=O)N/N=c2\scc(-c3ccc(C)cc3)n2-c2ccccc2)cc(S(N)(=O)=O)c1Oc1ccccc1 | 1520 nM
59 | CCCCNc1cc(-c2n[nH]c(=S)o2)cc(S(N)(=O)=O)c1Oc1ccccc1 | 5730 nM
60 | CCCCNc1cc(C(=O)N/N=c2\scc(-c3ccc(OC)cc3)n2-c2ccccc2)cc(S(N)(=O)=O)c1Oc1ccccc1 | 1520 nM
61 | CCCCNc1cc(-c2n[nH]c(=S)n2-c2ccccc2)cc(S(N)(=O)=O)c1Oc1ccccc1 | 280 nM
62 | C=CCn1c(-c2ccc(OC)cc2)cs/c1=N\NC(=O)c1cc(NCCCC)c(Oc2ccccc2)c(S(N)(=O)=O)c1 | 1520 nM
63 | CCCCNc1cc(C(=O)N/N=c2\scc(-c3ccc(C)cc3)n2-c2ccc(Br)cc2)cc(S(N)(=O)=O)c1Oc1ccccc1 | 1520 nM
64 | C=CCc1ccc(-n2c(-c3cc(NCCCC)c(Oc4ccccc4)c(S(N)(=O)=O)c3)n[nH]c2=S)cc1 | 4590 nM
65 | CCCCNc1cc(C(=O)N/N=c2\scc(-c3ccc(OC)cc3)n2-c2ccc(Br)cc2)cc(S(N)(=O)=O)c1Oc1ccccc1 | 1520 nM
